Data as given in paper PMC3914206.

Legend:
Assay type in all cases: binding
Conditions in all cases: Compound Concentration 10 µM
panel of 442 kinases [1] = target: T1, panel of 442 kinases (Homo sapiens, UniProt Q9P1W9)
T1 construct: purchased KINOMEscan
Source text: (§1) We assessed the selectivity of members of this scaffold using the KINOMEscan methodology across a near comprehensive panel of 442 kinases [[18,27]].

panel of 442 kinases [2] = target: T2, panel of 442 kinases (Homo sapiens, UniProt Q9BVS4)
T2 construct: purchased KINOMEscan
Source text: as §1

panel of 442 kinases [3] = target: T3, panel of 442 kinases (Homo sapiens, UniProt P07332)
T3 construct: purchased KINOMEscan
Source text: as §1

panel of 442 kinases [4] = target: T4, panel of 442 kinases (Homo sapiens, UniProt Q9BWU1)
T4 construct: purchased KINOMEscan
Source text: as §1

T1 sequence (Q9P1W9 whole entry): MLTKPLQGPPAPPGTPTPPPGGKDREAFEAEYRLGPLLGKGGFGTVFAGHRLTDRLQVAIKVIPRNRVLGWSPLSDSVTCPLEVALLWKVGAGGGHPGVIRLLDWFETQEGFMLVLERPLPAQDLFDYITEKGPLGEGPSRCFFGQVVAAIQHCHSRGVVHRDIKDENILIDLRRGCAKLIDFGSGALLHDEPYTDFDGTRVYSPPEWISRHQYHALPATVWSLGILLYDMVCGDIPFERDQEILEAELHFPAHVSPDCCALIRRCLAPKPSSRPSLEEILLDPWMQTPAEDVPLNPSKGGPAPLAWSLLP
T2 sequence (Q9BVS4 whole entry): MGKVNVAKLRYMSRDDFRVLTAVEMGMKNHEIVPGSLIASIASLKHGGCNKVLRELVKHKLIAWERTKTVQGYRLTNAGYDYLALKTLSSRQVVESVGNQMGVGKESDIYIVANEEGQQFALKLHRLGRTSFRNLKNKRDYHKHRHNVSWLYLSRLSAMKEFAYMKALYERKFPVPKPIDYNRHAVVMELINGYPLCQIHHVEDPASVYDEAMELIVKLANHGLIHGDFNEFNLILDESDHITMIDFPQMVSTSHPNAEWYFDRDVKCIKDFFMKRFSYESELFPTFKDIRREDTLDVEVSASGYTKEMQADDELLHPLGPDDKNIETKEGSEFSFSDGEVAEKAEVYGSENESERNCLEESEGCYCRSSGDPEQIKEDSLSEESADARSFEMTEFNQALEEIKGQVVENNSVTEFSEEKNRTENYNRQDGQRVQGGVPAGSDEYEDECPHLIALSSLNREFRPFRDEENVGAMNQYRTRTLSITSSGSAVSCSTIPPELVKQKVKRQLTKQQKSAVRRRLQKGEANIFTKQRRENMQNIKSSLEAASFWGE
T3 sequence (P07332 whole entry): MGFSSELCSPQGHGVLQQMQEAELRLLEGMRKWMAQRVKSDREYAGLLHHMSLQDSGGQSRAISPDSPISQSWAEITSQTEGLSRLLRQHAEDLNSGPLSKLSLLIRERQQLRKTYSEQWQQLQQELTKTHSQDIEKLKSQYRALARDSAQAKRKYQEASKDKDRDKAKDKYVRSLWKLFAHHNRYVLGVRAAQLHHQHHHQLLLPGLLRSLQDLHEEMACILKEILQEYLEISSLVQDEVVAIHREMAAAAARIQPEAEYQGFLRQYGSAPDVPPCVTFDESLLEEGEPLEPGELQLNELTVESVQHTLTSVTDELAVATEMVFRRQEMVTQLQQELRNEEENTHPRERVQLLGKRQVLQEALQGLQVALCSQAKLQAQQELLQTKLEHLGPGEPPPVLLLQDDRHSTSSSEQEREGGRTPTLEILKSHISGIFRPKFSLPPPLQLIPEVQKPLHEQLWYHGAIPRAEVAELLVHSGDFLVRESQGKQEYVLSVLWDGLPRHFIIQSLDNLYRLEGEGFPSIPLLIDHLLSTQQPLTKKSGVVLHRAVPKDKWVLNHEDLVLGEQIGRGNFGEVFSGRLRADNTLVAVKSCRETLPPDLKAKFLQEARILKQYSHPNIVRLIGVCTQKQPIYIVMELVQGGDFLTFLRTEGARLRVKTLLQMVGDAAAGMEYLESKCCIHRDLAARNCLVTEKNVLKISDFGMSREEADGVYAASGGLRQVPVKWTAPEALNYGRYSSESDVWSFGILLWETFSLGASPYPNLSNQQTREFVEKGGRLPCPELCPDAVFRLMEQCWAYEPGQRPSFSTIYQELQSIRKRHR
T4 sequence (Q9BWU1 whole entry): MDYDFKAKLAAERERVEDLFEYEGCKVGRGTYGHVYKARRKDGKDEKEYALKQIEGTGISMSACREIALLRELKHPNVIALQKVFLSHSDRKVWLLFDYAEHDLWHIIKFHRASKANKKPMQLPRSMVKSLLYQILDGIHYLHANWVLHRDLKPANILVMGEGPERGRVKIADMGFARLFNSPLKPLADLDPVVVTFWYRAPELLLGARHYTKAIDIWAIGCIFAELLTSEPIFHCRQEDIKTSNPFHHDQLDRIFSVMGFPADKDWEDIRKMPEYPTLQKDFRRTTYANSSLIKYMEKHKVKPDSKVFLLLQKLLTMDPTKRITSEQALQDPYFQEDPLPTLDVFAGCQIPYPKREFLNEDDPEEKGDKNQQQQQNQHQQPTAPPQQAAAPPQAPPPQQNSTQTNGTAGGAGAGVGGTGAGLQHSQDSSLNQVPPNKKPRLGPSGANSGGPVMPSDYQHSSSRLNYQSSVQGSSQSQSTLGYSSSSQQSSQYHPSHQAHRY

SMILES | KINOMEscan: PIM2 (panel of 442 kinases [1]) | KINOMEscan: RIOK2 (panel of 442 kinases [2]) | KINOMEscan: FES (panel of 442 kinases [3]) | KINOMEscan: CDK11 (panel of 442 kinases [4])
CCOc1cc(C(=O)N2CCC(N3CCN(C)CC3)CC2)ccc1Nc1ncc2c(n1)N(C1CCCC1)c1ccccc1C(=O)N2C [Compound 26] | 100 | 81 | 100 | 100
COc1cc(C(=O)N2CCC(N3CCN(C)CC3)CC2)ccc1Nc1ncc2c(n1)N1CCc3cccc(c31)C(=O)N2C [Compound 24] | 85 | 81 |  | 96
COc1cc(C(=O)N2CCC(N3CCN(C)CC3)CC2)ccc1Nc1ncc2c(n1)N(C)c1ccccc1C(=O)N2C [15 (LRRK2-IN-1)] | 100 | 100 | 84 | 100
COc1cc(C(=O)N2CCC(N3CCN(C)CC3)CC2)ccc1Nc1ncc2c(n1)N(C1CCCC1)c1ccccc1C(=O)N2C [Compound 25, 11-cyclopentyl-2-((2-methoxy-4-(4-(4-methylpiperazin-1-yl)piperidine-1-carbonyl)phenyl)amino)-5-methyl-5H-benzo[e]pyrimido[5,4-b][1,4]diazepin-6(11H)-one] | 100 | 93 | 89 | 87
